Results on 15 compounds are retold here after US20210300909A1, “IMMUNOMODULATORS, COMPOSITIONS AND METHODS THEREOF” (BETTA PHARMACEUTICALS CO., LTD, priority 2018, published 2021).

The target in this experiment is T1, PD-1/PD-L1 protein/protein interaction (Homo sapiens, UniProt Q9NZQ7).
T1 construct: Recombinant human PD-L1 protein (19-238) with a His-tag at the C-terminus; purchased AcroBiosystems PD1-H5229 (PD-L1); PD1-H5257 (PD-1)
The experiment can be described thus: PD-1/PD-L1 homogenous time-resolved fluorescence (HTRF) binding assay. As to the method: Resolved Fluorescence (HTRF) Binding Assay
The assays were conducted in a standard black 384-well polystyrene plate with a final volume of 20 μL. Inhibitors were first serially diluted in DMSO and then added to the plate wells before the addition of other reaction components. The final concentration of DMSO in the assay was 1%. The assays were carried out at 25° C. in the PBS buffer (pH 7.4) with 0.05% Tween-20 and 0.1% BSA. […] Plates were centrifuged and proteins were preincubated with inhibitors for 40 min. The incubation was followed by the addition of 10 μL of HTRF detection buffer supplemented with Europium cryptate-labeled anti-human IgG (PerkinElmer-AD0212) specific for Fc and anti-His antibody conjugated to SureLight®-Allophycocyanin (APC, PerkinElmer-AD0059H). After centrifugation, the plate was incubated at 25° C. for 60 min. […] Final concentrations in the assay were […], 10 nM PD-L1, nM europium anti-human IgG and 20 nM anti-His-Allophycocyanin. IC50 determination was performed by fitting the curve of percent control activity versus the log of the inhibitor concentration using the GraphPad Prism 5.0 software.
On the technique in general: TR-FRET usually uses a lanthanide donor and a delayed reading to cut background.

Setting [1] is: HTRF, recombinant human PD-1 (Fc tag) / PD-L1 (His-tag), 25° C., PBS pH 7.4, class symbols, read-out: IC50.

Like-named read-outs stand apart in the source and are kept apart here.

T1 sequence (Q9NZQ7 19-238): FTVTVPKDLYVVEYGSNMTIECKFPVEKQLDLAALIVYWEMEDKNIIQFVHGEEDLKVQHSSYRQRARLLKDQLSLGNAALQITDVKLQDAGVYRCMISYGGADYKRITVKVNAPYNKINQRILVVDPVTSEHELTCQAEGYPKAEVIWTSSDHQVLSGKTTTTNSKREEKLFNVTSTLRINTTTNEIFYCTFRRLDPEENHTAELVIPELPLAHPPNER

`COc1cc2oc(-c3cccc(-c4cccc(NC(=O)CCN5CCOCC5)c4C)c3C)nc2cc1CN1CCCCC1C(=O)O` (stereo not drawn) [Compound 8, 1-((2-(2,2′-dimethyl-3′-(3-morpholinopropanamido)-[1,1′-biphenyl]-3-yl)-6-methoxybenzo[d]oxazol-5-yl)methyl)piperidine-2-carboxylic acid]: the IC50 is below 25 nM.

Turning to `COc1cc2c(cc1CN1CCCCC1C(=O)O)nc(-c1cccc(-c3cccc(OCCCN4CCOCC4)c3F)c1C)n2C` (stereo not drawn) [Compound 13, 1-((2-(2′-fluoro-2-methyl-3′-(3-morpholinopropoxy)-[1,1′-biphenyl]-3-yl)-6-methoxy-1-methyl-1H-benzo[d]imidazol-5-yl)methyl)piperidine-2-carboxylic acid], the IC50 is below 25 nM.

As for `Cc1c(-c2cccc(OCCCN3CCOCC3)c2)cccc1-c1nc2cc(CN3CCCCC3C(=O)O)c(OCc3ccccn3)cc2o1` (stereo not drawn) [Compound 22, 1-((2-(2-methyl-3′-(3-morpholinopropoxy)-[1,1′-biphenyl]-3-yl)-6-(pyridin-2-ylmethoxy)benzo[d]oxazol-5-yl)methyl)piperidine-2-carboxylic acid], the IC50 is 25 to 150 nM.

The compound `COc1cc2oc(-c3cccc(-c4cccc(/C=C/CCN5CCOCC5)c4C)c3C)nc2cc1CN1CCCCC1C(=O)O` (stereo not drawn) [Compound 7, (E)-1-((2-(2,2′-dimethyl-3′-(4-morpholinobut-1-en-1-yl)-[1,1′-biphenyl]-3-yl)-6-methoxybenzo[d]oxazol-5-yl)methyl)piperidine-2-carboxylic acid] had an IC50 below 25 nM.

For `COc1cc2nc(-c3cccc(-c4cccc(OCCCN5CCOCC5)c4)c3C)sc2cc1CN1CCCCC1C(=O)O` (stereo not drawn) [Compound 35, 1-((5-methoxy-2-(2-methyl-3′-(3-morpholinopropoxy)-[1,1′-biphenyl]-3-yl)benzo[d]thiazol-6-yl)methyl)piperidine-2-carboxylic acid], the 50% inhibitory concentration (IC50) is below 25 nM.

`COc1cc2oc(-c3cccc(-c4ccc(Cl)c(OCCCN5CCOCC5)c4)c3C)nc2cc1CN1CCCCC1C(=O)O` (stereo not drawn) [Compound 11, 1-((2-(4′-chloro-2-methyl-3′-(3-morpholinopropoxy)-[1,1′-biphenyl]-3-yl)-6-methoxybenzo[d]oxazol-5-yl)methyl)piperidine-2-carboxylic acid]: the IC50 under setting [1] was 25 to 150 nM.

`COc1cc2oc(-c3cccc(-c4cccc(CC5CC5CN5CCOCC5)c4C)c3C)nc2cc1CN1CCCCC1C(=O)O` (stereo not drawn) [Compound 28, 1-((2-(2,2′-dimethyl-3′-((2-(morpholinomethyl)cyclopropyl)methyl)-[1,1′-biphenyl]-3-yl)-6-methoxybenzo[d]oxazol-5-yl)methyl)piperidine-2-carboxylic acid] came in with a half-maximal inhibitory concentration (IC50) of 25 to 150 nM.

With `CCOc1cc2oc(-c3cccc(-c4cccc5c4CCN5C(=O)CCN4CCOCC4)c3C)nc2cc1CN1CCCCC1C(=O)O` (stereo not drawn) [Compound 39, 1-((6-ethoxy-2-(2-methyl-3-(1-(3-morpholinopropanoyl)indolin-4-yl)phenyl)benzo[d]oxazol-5-yl)methyl)piperidine-2-carboxylic acid], under setting [1], the half-maximal inhibitory concentration (IC50) was below 25 nM.

On to `COc1cc2oc(-c3cccc(-c4cccc5c4CCN5C(=O)CN4CCOCC4)c3C)nc2cc1CN1CCCCC1C(=O)O` (stereo not drawn) [Compound 40, 1-((6-methoxy-2-(2-methyl-3-(1-(2-morpholinoacetyl)indolin-4-yl)phenyl)benzo[d]oxazol-5-yl)methyl)piperidine-2-carboxylic acid], for which, under setting [1], the IC50 is above 150 nM.

For the compound `COc1cc2oc(-c3cccc(-c4cccc(OCCCN(C)CCCCO)c4C)c3C)nc2cc1CN1CCCCC1C(=O)O` (stereo not drawn) [Compound 29, 1-((2-(3′-(3-((4-hydroxybutyl)(methyl)amino)propoxy)-2,2′-dimethyl-[1,1′-biphenyl]-3-yl)-6-methoxybenzo[d]oxazol-5-yl)methyl)piperidine-2-carboxylic acid], the IC50 is below 25 nM.

On to `COCCN(C)CCCOc1cccc(-c2cccc(-c3nc4cc(CN5CCCCC5C(=O)O)c(OC)cc4o3)c2C)c1C` (stereo not drawn) [Compound 31, 1-((6-methoxy-2-(3′-(3-((2-methoxyethyl)(methyl)amino)propoxy)-2,2′-dimethyl-[1,1′-biphenyl]-3-yl)benzo[d]oxazol-5-yl)methyl)piperidine-2-carboxylic acid], for which the IC50 was below 25 nM.

`COc1cc2oc(-c3cccc(-c4cccc(NC(=O)CCN5CCOCC5)c4)c3C)nc2cc1CN1CCOCC1C(=O)O` (stereo not drawn) [Compound 17, 4-((6-methoxy-2-(2-methyl-3′-(3-morpholinopropanamido)-[1,1′-biphenyl]-3-yl)benzo[d]oxazol-5-yl)methyl)morpholine-3-carboxylic acid]: the IC50 was below 25 nM.

For `COc1cc2nc(-c3cccc(-c4cccc(OCCCN5CCOCC5)c4)c3C)oc2cc1CN1CCCCC1C(=O)O` (stereo not drawn) [Compound 34, 1-((5-methoxy-2-(2-methyl-3′-(3-morpholinopropoxy)-[1,1′-biphenyl]-3-yl)benzo[d]oxazol-6-yl)methyl)piperidine-2-carboxylic acid], the 50% inhibitory concentration (IC50) is below 25 nM.

`COc1cc2oc(-c3cccc(-c4cccc(OCCCN(C)C)c4C)c3C)nc2cc1CN1CCCCC1C(=O)O` (stereo not drawn) [Compound 30, 1-((2-(3′-(3-(dimethylamino)propoxy)-2,2′-dimethyl-[1,1′-biphenyl]-3-yl)-6-methoxybenzo[d]oxazol-5-yl)methyl)piperidine-2-carboxylic acid] returned an IC50 below 25 nM.

In turn, `COc1cc2oc(-c3cccc(-c4cccc(OCCCN5CCOCC5)c4)c3C)nc2cc1CNC(C)(CO)C(=O)O` (stereo not drawn) [Compound 21, 3-hydroxy-2-(((6-methoxy-2-(2-methyl-3′-(3-morpholinopropoxy)-[1,1′-biphenyl]-3-yl)benzo[d]oxazol-5-yl)methyl)amino)-2-methylpropanoic acid] displayed an IC50 below 25 nM.

The term IC50 denotes the midpoint of a concentration-inhibition curve.
